# How the values were obtained:
# [1] = tested on: OPM-2 cells; test: Proliferation/viability assay (CellTiter-Glo), OPM-2; type: cell-based, human; details: OPM-2, 48 h treatment
# Experimental: (§1) Human MM cell lines used were as follows: NCI-H929, OPM-2, LP-1, RPMI-8226, U266 (DSMZ, Braunschweig, Germany). Cell lines were cultured in RPMI 1640 medium (Biochrom, Berlin, Germany) supplemented with 10% heat-inactivated fetal calf serum (FCS, Gibco, Karlsruhe, Germany), 1 mM sodium pyruvate and 100 units/ml penicillin and 100 μg/ml streptomycin (Gibco). Human osteoclasts were obtained as described in the reference of Zavrski I, Krebbel H, Wildemann B, et al. Proteasome inhibitors abrogate osteoclast differentiation and osteoclast function. Biochem Biophys Res Commun. 2005; 333:200-205. Briefly, peripheral blood mononuclear cells (PBMC) were isolated from whole blood of healthy volunteers, using a Ficoll-Hypaque density gradient. The adherent fraction of the isolated mononuclear cells was cultured for 21 days in MEM medium (Sigma-Aldrich Chemie, Taufkirchen, Germany) supplemented with 10% FCS, 100 U/ml penicillin, 100 μg/ml streptomycin, 50 ng/ml M-CSF, and 25 ng/ml RANKL (osteoclastogenic medium), before coculture experiments and treatment with the inventive compounds started. […]
# For assaying proliferation/viability of cells CellTiter-Glo Luminescent Cell Viability Assay (Promega, Mannheim, Germany) was used. In this assay the number of viable cells at a given time point is determined by quantification of ATP present, which serves as a measure of metabolically active cells. […]
# [2] = tested on: MM cells; test: Cell cycle analysis (propidium iodide staining), MM cells; type: cell-based, human; details: after 48 h and 72 h
# Experimental: (§2) The compound according to example 1, hereinafter referred to as GSI15, (compound RH02015SC, Maybridge, Acros Organics, Geel, Belgium) was freshly dissolved as 26 mM stock solution in Dimethylsulfoxide (DMSO). Multiple myeloma therapeutics used were melphalan (marketed as Alkeran®, GlaxoSmithKline, Munich, Germany) and bortezomib (marketed as Velcade®, Janssen-Cilag, Neuss, Germany). Melphalan was freshly dissolved at 10 mg/ml in 0.9% NaCl-solution. Bortezomib was freshly dissolved at 100 ng/ml in 0.9% NaCl solution. Gamma Secretase Inhibitor (GSI) treatment for apoptosis assessment by AnnexinV/PI staining, cell cycle analysis and coculture experiments was performed in 6-well plates. GSI15 stock solution was added directly to the cell suspension. GSI treatment for assaying proliferation was performed in 96-well plates. […]
# (§3) For cell cycle analysis 2×10^5 cells were spun down, medium was aspirated and cells washed with PBS. […] After 10 minutes incubation in the dark at room temperature, cells were analyzed by flow cytometry. The amount of apoptotic cells was determined by AnnexinV/propidium iodide staining using Human AnnexinV-FITC Kit (Bender Medsystems, Vienna, Austria), according to manufacturer's protocol. […] Cells were then spun down again, resuspended in binding buffer containing PI and analyzed by flow cytometry.
# [3] = tested on: LP-1 cells; test: Cell cycle analysis (propidium iodide), sub-G1 fraction, LP-1; type: cell-based, human; details: LP-1, after 72 h
# Experimental: as §2, §3
# [4] = tested on: OPM-2 cells; test: Apoptosis by AnnexinV-FITC/PI staining, OPM-2; type: cell-based, human
# Experimental: The compound according to example 1, hereinafter referred to as GSI15, (compound RH02015SC, Maybridge, Acros Organics, Geel, Belgium) was freshly dissolved as 26 mM stock solution in Dimethylsulfoxide (DMSO). Multiple myeloma therapeutics used were melphalan (marketed as Alkeran®, GlaxoSmithKline, Munich, Germany) and bortezomib (marketed as Velcade®, Janssen-Cilag, Neuss, Germany). Melphalan was freshly dissolved at 10 mg/ml in 0.9% NaCl-solution. Bortezomib was freshly dissolved at 100 ng/ml in 0.9% NaCl solution. Gamma Secretase Inhibitor (GSI) treatment for apoptosis assessment by AnnexinV/PI staining, cell cycle analysis and coculture experiments was performed in 6-well plates. GSI15 stock solution was added directly to the cell suspension. GSI treatment for assaying proliferation was performed in 96-well plates. 10,000 cells per well were seeded in 50 μl medium per well before 50 μl of a 2× solution of GSI15 prediluted in medium were added per well. Melphalan and bortezomib treatment as well as their combination with GSI15 for assaying apoptosis by AnnexinV/PI staining was done in 6-well plates. All inhibitors were added directly to the cells in 6-well plates.
# For cell cycle analysis 2×10^5 cells were spun down, medium was aspirated and cells washed with PBS. Cells were then resuspended in 250 μl PBS. 1 ml ice-cold 70% ethanol was added, followed by overnight incubation at −20° C. Cells were spun down, the pellet washed with PBS and then resuspended in 200 μl PBS containing 0.15 mg/ml RNaseA and 30 μg/ml propidium iodide (PI). After 10 minutes incubation in the dark at room temperature, cells were analyzed by flow cytometry. The amount of apoptotic cells was determined by AnnexinV/propidium iodide staining using Human AnnexinV-FITC Kit (Bender Medsystems, Vienna, Austria), according to manufacturer's protocol. Briefly, 2×10^5 cells were spun down and washed with PBS, followed by 10 minutes incubation in binding buffer containing AnnexinV-FITC conjugate. Cells were then spun down again, resuspended in binding buffer containing PI and analyzed by flow cytometry.
# [5] = tested on: U266 cells; test: Apoptosis by AnnexinV-FITC/PI staining, U266; type: cell-based, human
# Experimental: as §2, §3
# [6] = tested on: OPM-2 cocultured with OCL; test: OPM-2/OCL coculture, apoptosis of OPM-2 by AnnexinV-FITC/PI staining; type: cell-based, human; details: 60 μM GSI15, 48 h
# Experimental: as §1, with “gradient.” for “gradient. The adherent fraction of the isolated mononuclear cells was cultured for 21 days in MEM medium (Sigma-Aldrich Chemie, Taufkirchen, Germany) supplemented with 10% FCS, 100 U/ml penicillin, 100 μg/ml streptomycin, 50 ng/ml M-CSF, and 25 ng/ml RANKL (osteoclastogenic medium), before coculture experiments and treatment with the inventive compounds started.”
# as §3
# [7] = tested on: human podocyte cell line; test: TGFβ-induced apoptosis in human podocyte cell line (Cell Death Detection ELISA); type: cell-based
# Experimental: The percentage of the apoptotic cells was determined after 24 hours using the Cell Death Detection ELISA (Roche Diagnostics, Mannheim, Germany) according to the manufaturer's protocol.
structure (smiles),measurement,setting,value
"CC(C)c1ccc(S(=O)(=O)Nc2cccnc2Oc2ccc(Cl)cc2)cc1 [Example 1, N-(2-(4-chlorophenoxy)pyridin-3-yl)-4-isopropylbenzenesulfonamide]",concentration of maximum effect on proliferation,[1],60 µM
same,proliferation,[1],dose-dependent reduction of proliferation
same,"distribution of G1-, S- and G2-phase",[2],remained unaltered
same,sub-G1 fraction,[3],increase in the sub-G1 fraction
same,apoptosis induction,"[4]; OPM-2, 40 μM GSI15 alone, 24 h",did not induce apoptosis
same,AnnexinV-FITC/PI staining,"[4]; OPM-2, 48 h of treatment",decrease of OPM-2 cells negative for both Annexin V-FITC- and PI-staining
same,overall amount of apoptotic cells,"[4]; OPM-2 alone, 60 μM GSI15, 48 h",29%
same,AnnexinV-FITC/PI staining,[5],remained unaffected
same,overall amount of apoptotic cells,[6],83%
same,effect in podocyte cell culture experiments,[7],positive effect
same,inhibition at 0.5 µM,"[7]; Homo sapiens, 500 nM, compared to TGFβ alone, 24 hours",41%
